≈ marks a conversion by molar mass, not a printed value. Where “and” joins values, the source holds several entries; their conditions need not be identical. Equal values may be shown once. Read-outs that look alike come from different tables or passages of the source.
How the values were obtained:
[1] = tested on: murine T-cell lymphoma EL4; assay: In vivo antitumour effect in the treatment of EL4 lymphoma; design: species or system C57BL/6 mice
Description: (§1) The in vivo antitumour effect of micellar diblock polymer conjugate of Example 28 carrying doxorubicin (DOX-DB) was studied on a model of murine T-cell lymphoma EL4 in the C57BL/6 inbred strains of mice. The conjugate was administered to mice intravenously (i.v.) in a single dose equivalent to 7.5 mg of doxorubicin/kg. The drug was injected 8 days after subcutaneous administration of 1 x 10^5 EL4 tumour cells, at a time when tumours are developed and the tumour bed size is about 6-8 mm in diameter. […] Further, the free doxorubicin (DOX) was used for treatment, injected at a total dose of 10 mg/kg, which, due to the different pharmacokinetics of a low molecular weight drug and the associated danger of high systemic toxicity, was injected in two partial intravenous doses on the 8th and 12th day after transplantation of tumour cells (each dose of 5 mg of doxorubicin).
(§2) Days mean the death of animals after administration of tumour cells (1 x 10^5 cells EL4 s.c. on day 0), LTS ("long term survivor") means long-term surviving mice without evidence of tumour (at least until day 70 after administration of tumour cells). The last line contains information about the median survival in groups.

[2] = tested on: CT26 - colon carcinoma cell line; assay: Cytostatic activity, 3H-thymidine incorporation; assay type: cell-based, murine
Description: (§3) These were murine tumour cell lines (CT26 - colon carcinoma cell line, 4T1 - mammary carcinoma cell line, both originating from the BALB/c inbred strain of mice, followed by EL4.IL-2-line of T-cell lymphoma originating from the C57BL/6 inbred strain of mice) and FaDu - a human line of squamous cell carcinoma of the head and neck. […] The cell proliferation was then determined using the standard method of incorporating ^3H-thymidine which was added for the last 6 hours of culture. Subsequently, the cultures were processed using the Tomtec Mach III harvester and, after drying, the radioactivity of samples obtained was measured by the beta-scintillation counter Microbeta Trilux (Wallac) using a solid scintillant (MeltiLex; Perkin Elmer). […] The activity of conjugates was determined by 3H-thymidine incorporation after 72 hours of incubation of cells with various concentrations of drugs. The IC50 values are given in ng of doxorubicin/mL and were calculated as a mean of several independent determinations.

[3] = tested on: 4T1 - mammary carcinoma cell line; assay: Cytostatic activity, 3H-thymidine incorporation; assay type: cell-based, murine; details: Mus musculus; 4T1, 72 hours
Description: as §3

[4] = tested on: EL4.IL-2-line of T-cell lymphoma; assay: Cytostatic activity, 3H-thymidine incorporation; assay type: cell-based, murine; details: Mus musculus, EL4.IL-2, 72 hours
Description: as §3

NB4/DOX = assay: IC50 of drugs with/without block copolymer, AlamarBlue method; assay type: cell-based; details: cells pre-incubated 1 hour with/without block copolymer at 250 µg/mL
Description: (§4) In in vitro experiments the cells were first incubated for 1 hour with/without a diblock or triblock copolymer at a concentration 250 µg/mL and thereto were added the above mentioned drugs in a concentration series. After 72 hours of incubation the metabolic activity of cells was determined using the AlamarBlue method and from it the IC50 of individual drugs. An experiment was performed with non-degradable diblock polymers PHPMA-PPO (Example 20) and triblock polymers (PHPMA)2-PPO (Example 21) as a control.

NB3/DOX = assay: as above; assay type: cell-based; details: cells pre-incubated 1 hour with/without block copolymer at 250 µg/mL
Description: as §4

[5] = tested on: FaDu - a human line of squamous cell carcinoma of the head and neck; assay: Cytostatic activity, 3H-thymidine incorporation; assay type: cell-based; details: 72 hours
Description: as §3

[6] = Release of docetaxel or its derivative from polymer conjugates in phosphate buffers (HPLC); assay type: physicochemical; details: pH 7.4 compared with pH 5.0, 37°C, conjugate 5 mg/mL
Description: At predetermined time intervals 200 µL of incubation solution was collected and after the extraction of released drugs and derivatives thereof into chloroform their amounts were determined using an HPLC system (Shimadzu HPLC system equipped with a column with a reverse phase Chromolith Performance RP-18e (100 x 4.6 mm) and UV-VIS detector Shimadzu SPD-10AVvp (230 nm), eluent water-acetonitrile with gradient from 50 to 100 vol% of acetonitrile, flow rate of 0.5 mL x min^-1).

[7] = tested on: murine T-cell lymphoma EL4; assay type: in vivo
Description: as §1, §2

[8] = read-out: IC50 after 72 hours of incubation

In the case of `COc1cccc2c1C(=O)c1c(O)c3c(c(O)c1C2=O)C[C@@](O)(C(=O)CO)C[C@@H]3O[C@H]1C[C@H](N)[C@H](O)[C@H](C)O1` [DOX, doxorubicin], the complete cure ([1]; 2 x 5 mg DOX/kg i.v.) is reported as “none”, the median survival ([1]; 2 x 5 mg DOX/kg i.v.) is reported as 40.5 days and the “tumour growth in comparison to untreated controls” value ([1]; 2 x 5 mg DOX/kg i.v.) is reported as “the average tumour growth was slower than in the group of untreated mice, but showed a steady progression”. For the same molecule, the “Survival: day of death of individual animals after administration of tumour cells” value ([1]; 2 x 5 mg DOX/kg i.v. on days 8 and 12) was 35 Days and 38 Days and 39 Days and 42 Days and 53 Days (2×), the IC50 ([2]; Mus musculus, CT26, 72 hours) was 0.0425 µg/mL (≈ 0.0782 µM) and the IC50 [3] was 0.0143 µg/mL (≈ 0.0263 µM). For the same molecule, the IC50 [4] was 0.0122 µg/mL (≈ 0.0224 µM), the IC50 (NB4/DOX; [8]) was 2.61 ± 0.17 µg/mL (≈ 4.8 µM) and the “IC50 after 72 hours of incubation” value (NB3/DOX) was 0.168 ± 0.005 µg/mL. It also gave an IC50 (NB3/DOX; [8]) of 0.215 ± 0.004 µg/mL (≈ 0.396 µM) and an IC50 [5] of 0.0048 µg/mL (≈ 0.00883 µM).

With “[raft-poly(HPMA-co-MA-AH-NHN=DTX-LEV)]-GFLG-PPO-NH2 [Example 28B]” the “release of drug DTX (or its derivative)” value [6] was “released significantly slower”.

With “[raft-poly(HPMA-co-MA-AH-NHN=DOX)]-GFLG-PPO-NH2 [DB-DOX]” the “first mouse with complete tumour regression, time after drug administration” value ([7]; 1 x 7.5 mg DOX eq./kg) was “eighth day”, the median survival ([7]; 1 x 7.5 mg DOX eq./kg i.v.) was 47.5 days and the “tumour growth in comparison to untreated controls” value ([7]; 1 x 7.5 mg DOX eq./kg i.v.) was “tumour growth stagnation within three days and a significant reduction in growth between the third and sixth day after administration of the drug”. For the same molecule, the “Survival: day of death of individual animals after administration of tumour cells” value ([7]; 1 x 7.5 mg DOX eq./kg i.v. on day 8) was 37 Days and 39 Days and 42 Days (2×) and 60 Days and LTS (LTS ("long term survivor") means long-term surviving mice without evidence of tumour (at least until day 70 after administration of tumour cells)) (3×), the “complete cure (share of subjects)” value ([7]; 1 x 7.5 mg DOX eq./kg i.v., 8 mice) was 37.5% and the “mice without apparent tumour at the place of administration” value ([7]; 13 days after drug administration, 1 x 7.5 mg DOX eq./kg) was 4 mice (out of 8). The “resistance against tumour after retransplantation of cured mice (LTS)” value ([7]; retransplanted 119 days after the first tumour, no treatment) was “of these three mice two were resistant”, the “decrease of the cytostatic effect of doxorubicin by binding the drug to a diblock carrier” value [2] was 2.6 times and the “IC50 after 72 hours of incubation” value (NB4/DOX) was 7.07 ± 0.11 µg/mL. For the same molecule, the “IC50 after 72 hours of incubation” value (NB3/DOX) was 0.919 ± 0.020 µg/mL.
